Data published in patent US10202391B2, “Chemical compounds” (AstraZeneca AB, priority 2015, dated 2019).

Tested on: Calu6 cell line
Assay: Combination cell growth inhibition (Sytox Green, Loewe synergy), Calu6
Format: cell-based, human
Settings: Example 18 with selumetinib, 6x6 dosing matrix 0-10 μmol/L, 3 days, Loewe model, average of three or more experiments
Text: A549 is a human non small cell lung cancer line carrying an oncogenic mutation in the KRAS gene (G12S). H2122 is a human non small cell lung cancer line carrying an oncogenic mutation in the KRAS gene (G12C). H2009 is a human non small cell lung cancer line carrying an oncogenic mutation in the KRAS gene (G12A). Calu6 is a human non small cell lung cancer line carrying mutation in the KRAS ([…]) gene. All cell lines were obtained from the American Type Culture Collection.
All cell line were maintained at 37° C. and 5% CO2 in a humidified atmosphere and grown in RPMI-1640 growth media supplemented with 10% FBS and 2 mmol/L glutamine. […]
Cells were seeded in 384-well black, clear bottomed plates (Greiner Bio-One, Stonehouse, UK), cultured for 18-24 hours and treated with increasing concentrations of Example 18 and selumetinib (0-10 μmol/L) in a 6×6 dosing matrix. […] After 3 days of treatment, live cell number was determined using a Sytox Green endpoint as described previously (“Davies B R, Greenwood H, Dudley P, et al: Preclinical pharmacology of AZD5363, an inhibitor of AKT: Pharmacodynamics, antitumor activity, and correlation of monotherapy activity with genetic background. Mol Cancer Ther 11(4):873-87, 2012”). […] Cells were then permeabilised by the overnight addition of saponin (0.03% final concentration, diluted in TBS-EDTA buffer) and a total cell count measured. […]

SMILES: COC[C@H]1Cn2cc(-c3nc(Nc4ccnn4C)ncc3C)nc2C(=O)N1Cc1ccc(F)c(F)c1 [Example 18, (R)-7-(3,4-Difluorobenzyl)-6-(methoxymethyl)-2-(5-methyl-2-((1-methyl-1H-pyrazol-5-yl)amino)pyrimidin-4-yl)-6,7-dihydroimidazo[1,2-a]pyrazin-8(5H)-one]
- Synergy score: 3
